This note sets out measurements from ChEMBL document CHEMBL1212896, “Discovery of novel cyanodihydropyridines as potent mineralocorticoid receptor antagonists” (J Med Chem, 2010).

For data set [1], the target named is T1, Androgen receptor (Homo sapiens, UniProt P10275).
T1 sequence (P10275 whole entry): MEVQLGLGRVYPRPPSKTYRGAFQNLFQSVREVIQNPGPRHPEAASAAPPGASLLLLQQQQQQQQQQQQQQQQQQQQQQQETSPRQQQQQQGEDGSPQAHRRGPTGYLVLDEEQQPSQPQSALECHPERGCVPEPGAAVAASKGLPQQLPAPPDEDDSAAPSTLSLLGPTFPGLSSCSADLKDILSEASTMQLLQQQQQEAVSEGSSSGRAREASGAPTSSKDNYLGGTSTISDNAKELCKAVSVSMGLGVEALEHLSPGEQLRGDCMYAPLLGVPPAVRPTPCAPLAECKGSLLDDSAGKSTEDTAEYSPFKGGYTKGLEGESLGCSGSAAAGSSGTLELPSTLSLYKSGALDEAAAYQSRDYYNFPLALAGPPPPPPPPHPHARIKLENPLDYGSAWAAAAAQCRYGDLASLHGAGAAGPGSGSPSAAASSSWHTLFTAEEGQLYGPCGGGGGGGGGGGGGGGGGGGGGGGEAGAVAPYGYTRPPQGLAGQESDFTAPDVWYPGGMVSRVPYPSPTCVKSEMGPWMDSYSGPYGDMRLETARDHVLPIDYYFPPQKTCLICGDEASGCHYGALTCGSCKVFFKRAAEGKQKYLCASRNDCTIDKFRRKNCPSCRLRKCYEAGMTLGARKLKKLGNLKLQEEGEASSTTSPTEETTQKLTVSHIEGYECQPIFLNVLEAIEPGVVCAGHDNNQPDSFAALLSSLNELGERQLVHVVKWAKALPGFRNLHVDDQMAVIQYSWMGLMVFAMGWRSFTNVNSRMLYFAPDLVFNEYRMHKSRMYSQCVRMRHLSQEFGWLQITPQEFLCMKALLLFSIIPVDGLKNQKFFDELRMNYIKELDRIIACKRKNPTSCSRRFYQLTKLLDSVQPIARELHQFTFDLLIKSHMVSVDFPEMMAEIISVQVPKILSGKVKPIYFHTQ
Kind of data set: Antagonist activity at androgen receptor LBD expressed in human HUH7 cells coexpressing GAL4 by luciferase reporter gene assay. It counts as functional, cell-based, Huh-7.

Data set [2] in a line: Clearance in Sprague-Dawley rat at 5 mg/kg, iv. The format is ADME, organism-based. Also on record: dose 5 mg/kg, route intravenous. As to conditions: in vivo.
The nature of data set [3]: Half life in Sprague-Dawley rat at 5 mg/kg, iv. It counts as ADME, organism-based. Also on record: dose 5 mg/kg, route intravenous. Particulars: in vivo.
Data set [4] is described as follows: Volume of distribution at steady state in Sprague-Dawley rat at 5 mg/kg, iv. The format is ADME, organism-based. As to conditions: in vivo, read-out: Vdss. Also on record: dose 5 mg/kg, route intravenous.
Data set [5] relates to Rattus norvegicus. Kind of data set: Antihypertensive activity in Dahl salt-sensitive rat model assessed as decrease of systolic blood pressure at 60 mg/kg, po bid for 21 days. It counts as functional, organism-based. Also on record: dose 60 mg/kg. Particulars: Artery.
The subject of data set [6] is Rattus norvegicus. Kind of data set: Protection of renal injury in Dahl salt-sensitive rat model assessed as reduction of urinal albumin excretion at 60 mg/kg, po bid for 21 days. Also on record: dose 60 mg/kg. It counts as functional, organism-based.

SMILES strings stand for the structures. Calls of active or inactive are those of the source. The rule behind the calls is not given here.

`COC(=O)C1=C(Cn2cncn2)NC(C)=C(C#N)C1c1ccc(F)cc1Cl` (stereo not given) displayed an IC50 in data set [1] of 4.6 µM. This counts as single-digit micromolar.

Compound `COC(=O)C1=C(C)NC(C)=C(C#N)C1c1ccc(F)cc1Cl` (stereo not given) gave a half-maximal inhibitory concentration (IC50) in data set [1] of 0.3 µM.

As for `COC(=O)C1=C(Cn2ccnc2)NC(C)=C(C#N)C1c1ccc(F)cc1Cl` (stereo not given), half-maximal inhibition in data set [1] (IC50) was put at 3.9 µM.

For the compound `CCCC1=C(C(=O)OC)C(c2ccccc2Cl)C(C#N)=C(C)N1` (stereo not given), half-maximal inhibition in data set [1] (IC50) required 0.3 µM.

Compound `COC(=O)C1=C(Cn2cnnn2)NC(C)=C(C#N)C1c1ccc(F)cc1Cl` (stereo not given) gave an IC50 in data set [1] of 2.7 µM. In data set [2], this compound yielded a clearance of 14.1 mL/min/kg. The same compound gave a half-life in data set [3] of 4.84 h. Besides, the Vd in data set [4] turned out to be 0.9 L/kg. The outcome in data set [5] and in data set [6] was Active.
